{
  "source": "patent US6894161B2",
  "about": "“Methods and compositions for photo-cross linking photoactive compounds to target tissue” (The University of British Columbia, priority 2001, dated 2005)",
  "assay": "Cyclic voltammetry, redox potentials",
  "format": "physicochemical",
  "settings": "dichloromethane at 22° C. versus Fc",
  "text": "Without being bound by theory, it is believed that the observed photochemical reaction with long wavelength light is not the result of intramolecular energy transfer from the porphyrin to the pyrazoline because estimations indicate that it would be an extremely endothermic process. With respect to the possibility that a photoinduced electron transfer may be responsible, it is first noted that there is no precedence for this reaction with pyrazolines. If the porphyrin and pyrazoline are considered as separate molecules, however, the estimation of the feasibility of an electron transfer process may be conducted as follows. Generally, a photochemical electron transfer occurs only when it is exergonic or <5 kcal mol^−1 endergonic (Eberson, L. Electron Transfer Reactions in Organic Chemistry, Springer-Verlag: Berlin Germany, 1987). The free energy change for a photoinduced electron transfer can be determined from the oxidation potential of the electron donor (E°D), the reduction potential of the electron acceptor (E°A) and the excited state energy of the sensitizer (E0,0), using the relationship ΔGET=23.06 kcal mol^−1[(E°D−E°A)−E0,0]−C; where C is a term that accounts for solvation. In order to estimate the feasibility of electron transfer using this relationship, the redox properties of the molecules must be known. The starting materials MePPP (18), the pyrazoline (19), and the photoproduct cyclopropane (20) have reduction and oxidation potentials as shown in Table 2.\nThe radical anions and dianions are therefore stable on the time scale of these experiments, with no chemistry occurring on addition of electrons to these molecules. If any chemical reactions were occurring from the radical anion or dianion, the CV's would be irreversible. […] On reduction, two consecutive electrons are accepted by the porphyrin macrocycle in each of 18, 19 and 20. The oxidations are also reversible; the only notable feature of the oxidation potentials is that 19 and 20 are somewhat easier to oxidize than MePPP. […]",
  "data": [
    {"smiles": "C=Cc1c(C)c2cc3nc(c4c5[nH]c(cc6nc(cc1[nH]2)C(C)=C6CC)c(C)c5C(=O)C4)C(CCC(=O)OC)C3C", "note": "(stereo not drawn) [Compound 18, Methylpyropheophorbide]", "values": [
      {"measurement": "Oxidation 1 (redox potential)", "value": 0.61},
      {"measurement": "Reduction 1 (redox potential)", "value": "−1.47"},
      {"measurement": "Reduction 2 (redox potential)", "value": "−1.73"}
    ]}
  ]
}
